What was measured:
[1] = Mechanical stability (grinding, tableting at 350 MPa, XRPD); assay type: physicochemical
[2] = Solid-state stability (XRPD, UPLC purity); settings: for Crystal form Transform: XRPD; for Purity (area%): starting purity 99.82 (hydrochloride), 99.72 (free); for Area (%): UPLC main peak (#Peak 1, RRT 1.00)
[3] = in vivo; parameters: species or system Sprague-Dawely rats; settings: rat, po
From the text: Sprague-Dawely rats (SPF grade) used in this experiment were purchased from Zhejiang Charles River Experimental Animal Technology Co., Ltd. with the production license No. SCXK (Zhe) 2019-0001 and the animal qualification certificate No. 20220107Aazz0619000738 and 20220107Aazz0619000691. A body weight range of males was 206.6 g to 234.5 g, and a body weight range of females was 188.4 g to 205.9 g.
In this experiment, all animals were randomly divided into 5 groups (5 animals/sex/group), received the drug at 97 mg/kg, 174 mg/kg, 312 mg/kg, 559 mg/kg, and 1000 mg/kg, respectively, and received signal intragastric administration orally. […] All animals received administration according to their latest weighed body weight. The drug was stirred for at least 10 min before administration, and continuously stirred during administration until the administration of the sample at this concentration was completed. […]
All animals underwent a comprehensive physical examination by a veterinarian before administration. […] All surviving animals were weighed once on the day of random grouping (Day-1), Day 1 (before administration), Day 3, Day 5, Day 7, and Day 8; and their 24±1-hour food consumption was measured once on Day 1 (Day 1 to Day 2), Day 2 (Day 2 to Day 3), and Day 6 (Day 6 to Day 7). […]

## CC[S@@](=N)(=O)C[C@H]1CC[C@H](N(C)c2ncnc3[nH]ccc23)CC1 [Free crystal form A]
[1]; manual grinding
  Results of mechanical stability After grinding: The crystal form remains unchanged, but the crystallinity is slightly reduced
[1]; tablet press, 350 MPa
  Results of mechanical stability After tableting: The crystal form remains unchanged, but the crystallinity is slightly reduced
[2]; 25°C/60% RH/4 weeks, open
  Crystal form Transform: No
  Purity (area%): 99.71 area%
[2]; 40°C/75% RH/4 weeks, open
  Crystal form Transform: No
  Purity (area%): 99.72 area%
[2]; 80°C/1 d, closed
  Crystal form Transform: No
[2]; 25°C/60% RH/4 weeks
  Area (%): 99.71%
[2]; 40°C/75% RH/4 weeks
  Area (%): 99.72%
[2]; 80°C/1 d
  Area (%): 99.71%
[3]
  MTD at 168 h: 174 mg/kg
